Assay results as given in US20230225990A1, “DIMETHYL SULFONE FOR TREATMENT OF CHRONICALLY HEAT STRESSED POULTRY” (Evonik Operations GmbH, priority 2020, published 2023).
Marks after values point to notes of the source that are not given here.

How the values were obtained:
[1] = test system: male broilers subjected to chronic cyclic heat stress; assay: Parameters in breast muscle of birds sampled at d-23, d-25 and d-39; assay type: in vivo, broiler chickens (Ross 308)
Experimental: (§1) Sampling of one bird per pen (with weight close to average weight of the pen) on d-23, d-25 and on d-39 (on d-25 and d-39, sampling starts after >3 h of heat stress that day; 108 birds in total) • malondialdehyde, HSP70 (Chicken Heat Shock Protein 70, Hsp-70 ELISA Kit) Cusabio Code CSB-E11196Ch), HSP90 (Chicken Heat Shock Protein 90, HSP-90 ELISA Kit; Cusabio Code CSB-E12873C), GPx, SOD in plasma; GSH/GSSG in erythrocytes; and T3, T4 and nitric oxide in serum • Breast muscle and liver: malondialdehyde, AOX (GPx, SOD), GSH/GSSG
(§2) For physiological measurements, time of sampling (representing the number of minutes between the beginning of heat stress and the precise moment of sampling of the bird that day), if appropriate, was included in the model as a covariable if significant as well. Orthogonal contrasts were applied to test for linear and quadratic effects upon incremental levels of DMS supplementation in the diet. Means are given as estimated marginal means (least square means). Means were separated using the Tukey post-hoc test. Differences were considered significant when p<0.05 and as a trend for significance when p<0.1.

[2] = test system: male broilers subjected to chronic cyclic heat stress; assay: Parameters in blood of birds sampled at d-23, d-25 and d-39; assay type: in vivo, broiler chickens (Ross 308); conditions: for GSSG/GSH / Glutathione (GSH) / Oxidized glutathione (GSSG): erythrocytes; for Glutathione peroxidase / Heat shock protein 70 / Malondialdehyde / Super oxide dismutase: plasma; for Nitric oxide / T3 (triiodothyronine) / T3/T4 / T4 (thyroxine): serum
Experimental: as §1, §2
Heat shock protein 70 and heat shock protein 90 were determined in plasma employing the competitive inhibition enzyme immunoassay technique (HSP70, Chicken Heat Shock Protein 70, Hsp-70 ELISA Kit; Cusabio Code CSB-E11196Ch) and the quantitative sandwich enzyme immunoassay technique (HSP90, Chicken Heat Shock Protein 90, HSP-90 ELISA Kit; Cusabio Code CSB-E12873C), respectively. Regarding HSP-90 very low absorbances were found and in most cases fell below the lowest standard dilution. Values were then typically less than 0.39 ng/mL, the minimum detectable dose as mentioned in the user manual. For that reason, no data for HSP-90 could be reported here. Opposite to that, HSP-70 worked properly and values were all above sensitivity of 0.125 ng/mL. No treatments effects on HSP-70 could be perceived on either sampling day, apart from a trend for linear reduction on d-23. […] It must be noted that large variation across samples was found on d-39. Thyroxine (T4) could not be detected on d-23, while higher values were found on d-25 and d-39. A trend for linear increase on d-39 by higher DMS dose was observed. […] It means that conversion efficiency was not altered by diet. Irrespective of treatment is the sharp reduction in circulating T3 levels as birds age and thus subjected for long period to heat stress. As indicated above, this can be regarded as an adaptation to reduce body metabolism and hitherto metabolic heat production, and apparently birds fed DMS seems to be less affected. Nitric oxide was not different across treatments at any sampling day. Further, interesting changes in malondialdehyde, a marker of lipid peroxidation, were found. […] The higher GSH in DMS-fed chickens thus promotes antioxidant function and redox homeostasis. However, no relation could be established between plasma malondialdehyde and erythrocyte glutathione (FIG. 17).

[3] = test system: chronically heat stressed poultry; assay: Litter moisture; assay type: in vivo; conditions: control diet+0.05 wt.-% DMS; d-42
Text: For this purpose, two treatments (T1: control diet, and T2: control diet+0.05 wt.-% DMS) were done with 13 replicate pens each and 10 birds per pen. Collection of litter was done at days 28 and 42 to determine litter moisture. The sampling of the litter was done in five different points in each pen (each corner and the centre of each pen) and then homogenized to compose the representative sample of the pen. […] Calculating was done according to the formula: […]

Compound: CS(C)(=O)=O [DMS, dimethyl sulfone]
- Glutathione (GSH) ([1]; 0.1% DMS in diet (T2), d-23): 1.00 µmol/g
- Glutathione peroxidase ([1]; 0.1% DMS in diet (T2), d-23): 0.39 U/g
- Malondialdehyde ([1]; 0.1% DMS in diet (T2), d-23): 4.72 nmol/g
- Super oxide dismutase ([1]; 0.1% DMS in diet (T2), d-23): 29.7 U/g
- Glutathione (GSH) ([1]; 0.1% DMS in diet (T2), d-25): 1.30^ab μmol/g
- Glutathione peroxidase ([1]; 0.1% DMS in diet (T2), d-25): 0.42 U/g
- Malondialdehyde ([1]; 0.1% DMS in diet (T2), d-25): 4.6 nmol/g
- Super oxide dismutase ([1]; 0.1% DMS in diet (T2), d-25): 27.3 U/g
- Glutathione (GSH) ([1]; 0.1% DMS in diet (T2), d-39): 1.46 µmol/g
- Glutathione peroxidase ([1]; 0.1% DMS in diet (T2), d-39): 0.46 U/g
- Malondialdehyde ([1]; 0.1% DMS in diet (T2), d-39): 5.23 nmol/g
- Super oxide dismutase ([1]; 0.1% DMS in diet (T2), d-39): 27.4 U/g
- Glutathione (GSH) ([1]; 0.2% DMS in diet (T3), d-23): 1.10 µmol/g
- Glutathione peroxidase ([1]; 0.2% DMS in diet (T3), d-23): 0.38 U/g
- Malondialdehyde ([1]; 0.2% DMS in diet (T3), d-23): 4.5 nmol/g
- Super oxide dismutase ([1]; 0.2% DMS in diet (T3), d-23): 32.6 U/g
- Glutathione (GSH) ([1]; 0.2% DMS in diet (T3), d-25): 1.39^a μmol/g
- Glutathione peroxidase ([1]; 0.2% DMS in diet (T3), d-25): 0.44 U/g
- Malondialdehyde ([1]; 0.2% DMS in diet (T3), d-25): 4.5 nmol/g
- Super oxide dismutase ([1]; 0.2% DMS in diet (T3), d-25): 28.1 U/g
- Glutathione (GSH) ([1]; 0.2% DMS in diet (T3), d-39): 1.56 µmol/g
- Glutathione peroxidase ([1]; 0.2% DMS in diet (T3), d-39): 0.50 U/g
- Malondialdehyde ([1]; 0.2% DMS in diet (T3), d-39): 5.57 nmol/g
- Super oxide dismutase ([1]; 0.2% DMS in diet (T3), d-39): 26.2 U/g
- GSSG/GSH ([2]; 0.1% DMS in diet (T2), d-23): 0.015
- Glutathione (GSH) ([2]; 0.1% DMS in diet (T2), d-23): 1.07 µmol/mL
- Oxidized glutathione (GSSG) ([2]; 0.1% DMS in diet (T2), d-23): 0.017 µmol/mL
- GSSG/GSH ([2]; 0.1% DMS in diet (T2), d-25): 0.017^a
- Glutathione (GSH) ([2]; 0.1% DMS in diet (T2), d-25): 0.59 µmol/mL
- Oxidized glutathione (GSSG) ([2]; 0.1% DMS in diet (T2), d-25): 0.010 µmol/mL
- GSSG/GSH ([2]; 0.1% DMS in diet (T2), d-39): 0.017
- Glutathione (GSH) ([2]; 0.1% DMS in diet (T2), d-39): 0.64^ab μmol/mL
- Oxidized glutathione (GSSG) ([2]; 0.1% DMS in diet (T2), d-39): 0.011 µmol/mL
- Glutathione peroxidase ([2]; 0.1% DMS in diet (T2), d-23): 0.82 U/mL
- Heat shock protein 70 ([2]; 0.1% DMS in diet (T2), d-23): 1.69 ng/mL
- Malondialdehyde ([2]; 0.1% DMS in diet (T2), d-23): 14.4 nmol/mL
- Super oxide dismutase ([2]; 0.1% DMS in diet (T2), d-23): 84.1 % inhibition
- Glutathione peroxidase ([2]; 0.1% DMS in diet (T2), d-25): 0.84 U/mL
- Heat shock protein 70 ([2]; 0.1% DMS in diet (T2), d-25): 1.07 ng/mL
- Malondialdehyde ([2]; 0.1% DMS in diet (T2), d-25): 14.3 nmol/mL
- Super oxide dismutase ([2]; 0.1% DMS in diet (T2), d-25): 81.3 % inhibition
- Glutathione peroxidase ([2]; 0.1% DMS in diet (T2), d-39): 0.97 U/mL
- Heat shock protein 70 ([2]; 0.1% DMS in diet (T2), d-39): 2.77 ng/mL
- Malondialdehyde ([2]; 0.1% DMS in diet (T2), d-39): 15.7 nmol/mL
- Super oxide dismutase ([2]; 0.1% DMS in diet (T2), d-39): 79.5 % inhibition
- Nitric oxide ([2]; 0.1% DMS in diet (T2), d-23): 6.02 µmol/L
- T3 (triiodothyronine) ([2]; 0.1% DMS in diet (T2), d-23): 2.43^a μg/L
- Nitric oxide ([2]; 0.1% DMS in diet (T2), d-25): 4.31 µmol/L
- T3 (triiodothyronine) ([2]; 0.1% DMS in diet (T2), d-25): 1.74 µg/L
- T3/T4 ([2]; 0.1% DMS in diet (T2), d-25): 0.342
- T4 (thyroxine) ([2]; 0.1% DMS in diet (T2), d-25): 0.53 µg/dL
- Nitric oxide ([2]; 0.1% DMS in diet (T2), d-39): 3.84 µmol/L
- T3 (triiodothyronine) ([2]; 0.1% DMS in diet (T2), d-39): 1.10 µg/L
- T3/T4 ([2]; 0.1% DMS in diet (T2), d-39): 0.193
- T4 (thyroxine) ([2]; 0.1% DMS in diet (T2), d-39): 0.60 µg/dL
- GSSG/GSH ([2]; 0.2% DMS in diet (T3), d-23): 0.018
- Glutathione (GSH) ([2]; 0.2% DMS in diet (T3), d-23): 1.25 µmol/mL
- Oxidized glutathione (GSSG) ([2]; 0.2% DMS in diet (T3), d-23): 0.023 µmol/mL
- GSSG/GSH ([2]; 0.2% DMS in diet (T3), d-25): 0.013^b
- Glutathione (GSH) ([2]; 0.2% DMS in diet (T3), d-25): 0.70 µmol/mL
- Oxidized glutathione (GSSG) ([2]; 0.2% DMS in diet (T3), d-25): 0.009 µmol/mL
- GSSG/GSH ([2]; 0.2% DMS in diet (T3), d-39): 0.015
- Glutathione (GSH) ([2]; 0.2% DMS in diet (T3), d-39): 0.67^a μmol/mL
- Oxidized glutathione (GSSG) ([2]; 0.2% DMS in diet (T3), d-39): 0.010 µmol/mL
- Glutathione peroxidase ([2]; 0.2% DMS in diet (T3), d-23): 0.92 U/mL
- Heat shock protein 70 ([2]; 0.2% DMS in diet (T3), d-23): 1.00 ng/mL
- Malondialdehyde ([2]; 0.2% DMS in diet (T3), d-23): 14.2 nmol/mL
- Super oxide dismutase ([2]; 0.2% DMS in diet (T3), d-23): 80.4 % inhibition
- Glutathione peroxidase ([2]; 0.2% DMS in diet (T3), d-25): 0.86 U/mL
- Heat shock protein 70 ([2]; 0.2% DMS in diet (T3), d-25): 1.08 ng/mL
- Malondialdehyde ([2]; 0.2% DMS in diet (T3), d-25): 13.2 nmol/mL
- Super oxide dismutase ([2]; 0.2% DMS in diet (T3), d-25): 84.1 % inhibition
- Glutathione peroxidase ([2]; 0.2% DMS in diet (T3), d-39): 1.09 U/mL
- Heat shock protein 70 ([2]; 0.2% DMS in diet (T3), d-39): 4.23 ng/mL
- Malondialdehyde ([2]; 0.2% DMS in diet (T3), d-39): 14.9 nmol/mL
- Super oxide dismutase ([2]; 0.2% DMS in diet (T3), d-39): 87.1 % inhibition
- Nitric oxide ([2]; 0.2% DMS in diet (T3), d-23): 6.06 µmol/L
- T3 (triiodothyronine) ([2]; 0.2% DMS in diet (T3), d-23): 2.06^b μg/L
- Nitric oxide ([2]; 0.2% DMS in diet (T3), d-25): 4.48 µmol/L
- T3 (triiodothyronine) ([2]; 0.2% DMS in diet (T3), d-25): 1.72 µg/L
- T3/T4 ([2]; 0.2% DMS in diet (T3), d-25): 0.351
- T4 (thyroxine) ([2]; 0.2% DMS in diet (T3), d-25): 0.50 µg/dL
- Nitric oxide ([2]; 0.2% DMS in diet (T3), d-39): 3.14 µmol/L
- T3 (triiodothyronine) ([2]; 0.2% DMS in diet (T3), d-39): 1.12 µg/L
- T3/T4 ([2]; 0.2% DMS in diet (T3), d-39): 0.180
- T4 (thyroxine) ([2]; 0.2% DMS in diet (T3), d-39): 0.63 µg/dL
- Moisture content in the litter [3]: clear reduction
